The values below come from paper PMC11647725, “Discovery of 4-(5-Membered)Heteroarylether-6-methylpicolinamide Negative Allosteric Modulators of Metabotropic Glutamate Receptor Subtype 5” (ACS Medicinal Chemistry Letters, 2024).

In test [1] the target is Transporter, Norepinephrine (NET) (Homo sapiens, UniProt P23975). Nature of the test: Lead Profiling Screen, Eurofins Panlabs. It counts as binding. The settings on record: hum, read-out: % inh at 10 μM.
For the next test, the system named is Rolipram. Kind of test: Lead Profiling Screen, Eurofins Panlabs. The settings on record: rat. It counts as binding.
For a further test, the target named is T1, human mGlu2 (Homo sapiens, UniProt Q14416).
T1 construct: expressed in transfected cells
T1 sequence (Q14416 19-872): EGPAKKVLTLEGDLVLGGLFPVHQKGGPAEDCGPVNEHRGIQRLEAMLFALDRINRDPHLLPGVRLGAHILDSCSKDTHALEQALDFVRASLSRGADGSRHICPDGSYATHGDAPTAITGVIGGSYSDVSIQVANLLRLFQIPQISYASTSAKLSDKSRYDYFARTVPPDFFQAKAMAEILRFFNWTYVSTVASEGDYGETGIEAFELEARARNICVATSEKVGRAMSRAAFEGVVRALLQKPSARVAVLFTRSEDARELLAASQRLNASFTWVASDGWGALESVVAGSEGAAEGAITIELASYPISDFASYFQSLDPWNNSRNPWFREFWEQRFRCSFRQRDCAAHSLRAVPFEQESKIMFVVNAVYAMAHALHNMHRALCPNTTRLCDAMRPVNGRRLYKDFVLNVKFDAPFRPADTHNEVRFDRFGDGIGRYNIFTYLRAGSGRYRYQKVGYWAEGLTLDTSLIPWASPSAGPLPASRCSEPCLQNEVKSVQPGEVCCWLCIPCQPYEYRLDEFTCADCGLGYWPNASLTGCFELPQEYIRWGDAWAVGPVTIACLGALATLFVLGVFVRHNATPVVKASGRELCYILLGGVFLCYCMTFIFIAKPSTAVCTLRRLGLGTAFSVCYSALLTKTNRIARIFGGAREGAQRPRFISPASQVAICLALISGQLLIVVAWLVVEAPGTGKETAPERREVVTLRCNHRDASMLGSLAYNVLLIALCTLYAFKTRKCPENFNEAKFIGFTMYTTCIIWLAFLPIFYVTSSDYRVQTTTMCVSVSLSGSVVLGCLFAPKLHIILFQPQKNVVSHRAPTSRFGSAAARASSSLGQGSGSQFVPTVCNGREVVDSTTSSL
Kind of test: mGlu selectivity, thallium flux GIRK assay. The test is classed as cell-based. The procedure: (§1) the presence of 5% CO2, the dye solutions were removed and replaced with assay buffer using a microplate washer, leaving 20 μL of assay buffer in the cell plate. The compound, agonist, and cell plates were placed inside the Functional Drug Screening System (FDSS 7000 or uCell, Hamamatsu, Japan) to measure the calcium flux. Assays were run at 37 °C. A triple add protocol was used to measure Ca kinetics. Briefly, after establishment of a fluorescence baseline for 2 seconds (excitation, 480 nm; emission, 530 nm), 20 µL of test compound was added to the cells and the response was measured for 140 seconds. This was followed by the addition of 10 µL (5X) of an EC20 concentration of Glu agonist, and the response of the cells was measured for 125 seconds. A third addition occurred by adding 12 uL (5X) of an EC80 concentration of Glu agonist and the response of the cells was measured for 90 seconds. […] Calcium fluorescence was recorded as fold over basal fluorescence and raw data were normalized to the maximal response to Glu agonist (ECMax). Compound-evoked decreases in calcium response in the presence of Glu EC80 agonist were determined as inhibition activity, and potency (IC50) and maximum inhibition responses (% GluMin) of compounds were determined using a four-parameter logistical equation using GraphPad Prism (La Jolla, CA) or the Dotmatics software platform (Woburn, MA) : […]
(§2) The mGlu subtype selectivity of compounds was determined using calcium mobilization or thallium flux GIRK (G protein-regulated inwardly rectifying K channel) assays using the stable cell lines expressing the respective mGlu receptors. […]
(§3) at RT using DL-AP4 for the agonist. mGlu8 cells were incubated with dye solution for 50 min at 37 °C in the presence of […] and FDSS assays were run at RT. To measure activity at mGlu2 and mGlu3, HEK293-GIRK cells stably expressing human mGlu2 and mGlu3 were assessed using thallium flux assay through GIRK channels as previously described in detail.3 […]

Another test addresses T2, human mGlu3 (Homo sapiens, UniProt Q14832).
T2 construct: expressed in transfected cells
Kind of test: mGlu selectivity, thallium flux GIRK assay. It counts as cell-based. The procedure: as §1, §2, §3

The subject of the next test is Imidazoline I2, Central. Nature of the test: Lead Profiling Screen, Eurofins Panlabs. The test is classed as binding. The settings on record: rat. An excerpt: (§4) Nonetheless, as a non-aryl/heterobiaryl acetylene mGlu5 NAM with an encouraging in vivo rodent PK profile, we wished to further assess VU6043653 as a novel chemotype. Therefore, we compared metabolites in multiple species to better understand species differences in clearance and metabolism. […] Consistent with the high plasma clearance observed in dogs, high turnover was observed more so in dog hepatocytes than any other species tested (see the Supporting Information for additional details and results). To further evaluate our novel chemotype, the off-target and safety/toxicity profiles for this compound were further investigated.
(§5) Table S2. Lead Profiling Screen – Eurofins Panlabs for VU6043653.
Assay Name Species % inh at 10 μM […]
(§6) Imidazoline I2, Central rat -1

The target of a further test is Adenosine A3 (Homo sapiens, UniProt P0DMS8). Kind of test: Lead Profiling Screen, Eurofins Panlabs. The test is classed as binding. The settings on record: Adenosine A3, hum, read-out: % inh at 10 μM.
Sequence of Adenosine A3 (P0DMS8 whole entry): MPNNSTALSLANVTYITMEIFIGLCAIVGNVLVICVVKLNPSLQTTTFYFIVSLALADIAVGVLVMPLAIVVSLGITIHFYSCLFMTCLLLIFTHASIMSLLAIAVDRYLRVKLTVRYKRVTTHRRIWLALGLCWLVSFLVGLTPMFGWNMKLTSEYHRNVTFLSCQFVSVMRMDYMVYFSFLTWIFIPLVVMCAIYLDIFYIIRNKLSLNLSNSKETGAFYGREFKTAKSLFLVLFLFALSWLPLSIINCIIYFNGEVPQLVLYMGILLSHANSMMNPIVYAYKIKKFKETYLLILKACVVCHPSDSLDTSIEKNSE
From the text: as §4, §5
(§7) Assay Name Species % inh at 10 μM
(§8) Androgen (Testosterone) hum 75
(§9) Calcium Channel L-Type, Benzothiazepine rat 22
(§10) Calcium Channel L-Type, Dihydropyridine rat 1
(§11) Calcium Channel N-Type rat -8
(§12) Epidermal Growth Factor (EGF) hum -3
(§13) GABAA, Flunitrazepam, Central rat 0
(§14) GABAA, Muscimol, Central rat -5
(§15) Glutamate, Kainate rat -7
(§16) Glutamate, NMDA, Agonism rat 3
(§17) Glutamate, NMDA, Glycine rat -18
(§18) Glutamate, NMDA, Phencyclidine rat -4
as §6

Another test addresses Androgen (Testosterone) (Homo sapiens, UniProt P10275). Nature of the test: Lead Profiling Screen, Eurofins Panlabs. It counts as binding. The conditions noted are these: hum, read-out: % inh at 10 μM.
From the text: as §4, §5, §7, §8, §9, §10, §11, §12, §13, §14, §15, §16, §17, §18, §6

Test [2] concerns Purinergic P2Y, Non-Selective. Kind of test: Lead Profiling Screen, Eurofins Panlabs. The test is classed as binding. The conditions noted are these: rat.
A further test addresses Opiate μ (OP3, MOP) (Homo sapiens, UniProt P35372). Kind of test: Lead Profiling Screen, Eurofins Panlabs. It counts as binding. The settings on record: hum, read-out: % inh at 10 μM.
The target in a further test is Muscarinic M3 (Homo sapiens, UniProt P20309). Nature of the test: Lead Profiling Screen, Eurofins Panlabs. It counts as binding. The conditions noted are these: Muscarinic M3, hum, read-out: % inh at 10 μM.
Sequence of Muscarinic M3 (P20309 whole entry): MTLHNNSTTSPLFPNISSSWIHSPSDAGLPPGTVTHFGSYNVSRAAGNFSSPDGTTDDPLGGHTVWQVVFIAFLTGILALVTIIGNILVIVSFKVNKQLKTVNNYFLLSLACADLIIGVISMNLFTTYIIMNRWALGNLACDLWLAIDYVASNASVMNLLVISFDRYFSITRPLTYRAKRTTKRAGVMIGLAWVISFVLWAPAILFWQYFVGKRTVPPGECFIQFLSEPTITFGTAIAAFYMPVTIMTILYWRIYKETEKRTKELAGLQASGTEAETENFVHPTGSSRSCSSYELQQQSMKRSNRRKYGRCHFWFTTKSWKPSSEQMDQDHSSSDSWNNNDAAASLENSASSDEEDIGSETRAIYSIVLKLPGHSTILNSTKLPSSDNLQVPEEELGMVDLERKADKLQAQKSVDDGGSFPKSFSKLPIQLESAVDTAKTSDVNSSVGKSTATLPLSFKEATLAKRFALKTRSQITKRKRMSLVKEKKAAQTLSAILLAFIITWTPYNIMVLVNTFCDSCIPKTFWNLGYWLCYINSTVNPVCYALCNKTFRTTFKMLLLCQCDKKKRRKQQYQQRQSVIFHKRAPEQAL

Molecules are shown by their SMILES. pIC50: −log10 of the molar value. A value given as a limit tells only on which side of the number the result lay.

T2 sequence (Q14832 23-879): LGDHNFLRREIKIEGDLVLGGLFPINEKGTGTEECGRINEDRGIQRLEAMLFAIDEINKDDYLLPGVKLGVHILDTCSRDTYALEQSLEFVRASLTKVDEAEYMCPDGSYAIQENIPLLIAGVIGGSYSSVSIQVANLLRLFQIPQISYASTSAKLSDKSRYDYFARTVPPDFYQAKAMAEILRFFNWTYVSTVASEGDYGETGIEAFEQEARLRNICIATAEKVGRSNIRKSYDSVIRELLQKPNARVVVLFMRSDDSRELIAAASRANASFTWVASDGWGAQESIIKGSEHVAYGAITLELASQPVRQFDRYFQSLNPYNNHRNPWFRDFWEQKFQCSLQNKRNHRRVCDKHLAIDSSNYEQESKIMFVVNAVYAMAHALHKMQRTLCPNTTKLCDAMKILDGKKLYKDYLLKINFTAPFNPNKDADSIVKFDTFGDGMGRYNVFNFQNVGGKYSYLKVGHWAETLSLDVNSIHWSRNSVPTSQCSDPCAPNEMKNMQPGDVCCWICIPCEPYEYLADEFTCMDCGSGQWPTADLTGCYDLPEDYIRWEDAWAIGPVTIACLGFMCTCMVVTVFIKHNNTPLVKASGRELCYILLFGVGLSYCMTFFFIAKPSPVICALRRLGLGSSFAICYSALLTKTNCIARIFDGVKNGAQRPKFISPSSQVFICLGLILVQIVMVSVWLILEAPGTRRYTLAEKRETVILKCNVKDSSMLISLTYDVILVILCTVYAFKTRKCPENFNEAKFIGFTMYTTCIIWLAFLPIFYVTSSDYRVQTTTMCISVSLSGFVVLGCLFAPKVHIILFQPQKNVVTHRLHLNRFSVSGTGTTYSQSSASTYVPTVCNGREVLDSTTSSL
Sequence of Opiate μ (OP3, MOP) (P35372 whole entry): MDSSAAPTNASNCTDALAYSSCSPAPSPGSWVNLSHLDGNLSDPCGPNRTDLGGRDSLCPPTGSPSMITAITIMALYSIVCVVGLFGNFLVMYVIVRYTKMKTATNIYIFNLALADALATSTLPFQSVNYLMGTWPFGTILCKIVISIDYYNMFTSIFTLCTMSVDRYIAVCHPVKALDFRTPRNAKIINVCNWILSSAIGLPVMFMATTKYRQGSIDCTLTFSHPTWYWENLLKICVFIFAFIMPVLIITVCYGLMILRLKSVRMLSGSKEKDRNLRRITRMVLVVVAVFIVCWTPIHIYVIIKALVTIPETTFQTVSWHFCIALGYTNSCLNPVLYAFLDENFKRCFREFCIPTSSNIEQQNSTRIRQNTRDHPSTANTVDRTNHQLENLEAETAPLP
Sequence of Androgen (Testosterone) (P10275 whole entry): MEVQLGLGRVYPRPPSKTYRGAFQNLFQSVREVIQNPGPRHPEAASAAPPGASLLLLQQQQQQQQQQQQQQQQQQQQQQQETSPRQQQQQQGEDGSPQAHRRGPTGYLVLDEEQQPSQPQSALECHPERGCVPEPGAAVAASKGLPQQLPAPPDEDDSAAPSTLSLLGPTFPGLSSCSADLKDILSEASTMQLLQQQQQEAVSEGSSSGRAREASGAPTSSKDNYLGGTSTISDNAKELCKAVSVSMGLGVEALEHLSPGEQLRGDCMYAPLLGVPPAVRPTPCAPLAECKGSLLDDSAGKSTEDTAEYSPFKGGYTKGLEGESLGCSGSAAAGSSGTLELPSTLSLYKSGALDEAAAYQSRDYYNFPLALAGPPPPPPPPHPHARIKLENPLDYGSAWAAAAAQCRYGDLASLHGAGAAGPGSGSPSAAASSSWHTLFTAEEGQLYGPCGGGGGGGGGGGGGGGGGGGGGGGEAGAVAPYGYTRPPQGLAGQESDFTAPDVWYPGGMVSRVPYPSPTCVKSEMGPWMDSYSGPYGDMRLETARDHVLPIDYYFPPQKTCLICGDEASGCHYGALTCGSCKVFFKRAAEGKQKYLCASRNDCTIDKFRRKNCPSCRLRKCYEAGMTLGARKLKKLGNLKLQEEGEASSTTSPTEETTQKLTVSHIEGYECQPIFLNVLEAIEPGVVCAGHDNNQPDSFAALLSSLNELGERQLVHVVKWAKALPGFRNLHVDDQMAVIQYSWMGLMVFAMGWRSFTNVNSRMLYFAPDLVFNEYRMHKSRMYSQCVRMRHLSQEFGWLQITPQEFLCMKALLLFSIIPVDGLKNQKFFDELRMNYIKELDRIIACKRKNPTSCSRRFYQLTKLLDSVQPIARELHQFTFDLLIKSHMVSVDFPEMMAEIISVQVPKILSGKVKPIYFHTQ
Sequence of Transporter, Norepinephrine (NET) (P23975 whole entry): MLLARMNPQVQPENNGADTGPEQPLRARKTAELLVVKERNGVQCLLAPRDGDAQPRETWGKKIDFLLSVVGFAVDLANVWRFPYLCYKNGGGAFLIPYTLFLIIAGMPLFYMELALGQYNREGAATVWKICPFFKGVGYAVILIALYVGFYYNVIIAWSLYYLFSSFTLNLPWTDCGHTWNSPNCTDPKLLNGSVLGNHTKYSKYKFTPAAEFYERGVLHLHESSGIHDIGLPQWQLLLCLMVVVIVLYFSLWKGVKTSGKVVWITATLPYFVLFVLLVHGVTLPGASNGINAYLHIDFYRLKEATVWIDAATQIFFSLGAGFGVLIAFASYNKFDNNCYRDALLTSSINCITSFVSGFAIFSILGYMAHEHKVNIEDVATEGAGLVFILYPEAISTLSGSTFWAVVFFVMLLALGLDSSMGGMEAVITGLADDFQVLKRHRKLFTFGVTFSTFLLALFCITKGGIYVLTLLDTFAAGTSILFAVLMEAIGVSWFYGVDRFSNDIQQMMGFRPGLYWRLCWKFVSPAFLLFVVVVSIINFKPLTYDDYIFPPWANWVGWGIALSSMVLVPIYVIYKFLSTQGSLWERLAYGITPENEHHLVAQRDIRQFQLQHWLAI

Broadly, the pIC50 is the negative decadic logarithm of the IC50, by convention in mol/L. Low readings indicate a high IC50, high ones a low IC50. As to `Cc1cc(Oc2cnn(C)c2)cc(C(=O)Nc2ccc(F)cn2)n1` [22iA], the inhibition at 10 µM is 63% in test [1]; at least 70% at Adenosine A3; at least 70% at Androgen (Testosterone); 9% on Opiate μ (OP3, MOP); -15% at Muscarinic M3. Also, the “% inh at 10 μM” value is -2% in the test on Rolipram; -1% in the test on Imidazoline I2, Central; 9% in test [2]. In addition, the “IC50, human mGlu2” value at human mGlu2 is “inactive”. Moreover, at human mGlu3, the “%GluMin, human mGlu3” value was “[58] %”. The pIC50 on human mGlu3 was under 5.00.
